Measurements from patent publication US6693073B2, “Pulmonary delivery of active agents” (Emisphere Technologies, Inc., priority 1998, dated 2004).
Where two headings read alike, the source gives them in different places.

Assays:
[1] = Serum insulin after pulmonary instillation of insulin with carrier compound (Example 4); type: in vivo, rat; conditions: rats, spray instillation into airway; insulin 0.03 mg/kg with carrier compound 16 mg/kg
Experimental: Carrier compound B, carrier compound C sodium salt, and carrier compound D in Table 10 were tested as follows.
An endotracheal tube (spray instillator from Penn Century of Philadelphia, Pa.) with a syringe (Hamilton syringe) attached to the endotracheal tube was inserted using a fiber optic laryngoscope.

[2] = Solubility of carriers; type: physicochemical; conditions: water, thermodynamic from solid; clear solution, pH 6.85
[3] = rat, in vivo
Experimental: Each rat was weighed and identified using an indelible marker and anesthetized by intraperitoneal injection of ketamine: Xylazine: Acepromazine cocktail, at 80 mg/kg, 10 mg/kg and 2.0 mg/kg, respectively and returned to its cage. The rat was transferred to the surgical bench and placed on a heating blanket thermostatically controlled via rectal probe, once deep anesthesia was achieved.
The right jugular vein of each rat was catheterized using silicone tubing and the patency of the catheter was confirmed by slowly flushing the cannula with 200 μl heparin saline and then withdrawing 100 μl of blood. The cannula was then cleared with 200 μl of heparinized saline solution.
An endotrachcal tube was inserted using a fiber optic laryngoscope. The syringe (Hamilton syringe) of the instillator was attached to the endotracheal tube and used to instill solution (100 μl) in the airways. The endotracheal tube was removed following administration, and the breathing rate was monitored throughout the remainder of the study.
Blood samples (500 μl) were withdrawn at 0, 10, 30, 60, 90, 120 and 180 min and the cannula flushed with approximately 200 μl of heparinized saline solution. The blood was collected in 1 ml tuberculin syringes (containing 100 μl heparin 20 μ/ml) placed directly into microcentrifuge tubes.
Blood samples were immediately centrifuged at 10 000 rpm for 4 min.
Average insulin plasma concentrations over time were subjected to standard compartmental and non-compartmental pharmacokinetic analysis.
Average concentrations of insulin were fitted to the following equation:
CPins=A(e^−ke 1+e^−ka 1) (Eq.1)
where A=D ka/Vd (ka−ke) is the concentration of drug in the body at time zero, ka is the first order absorption rate constant, ke is the first order elimination rate constant.
The area under the lung concentration-time curve (AUC0−1) was calculated by the trapezoidal rule. Interpolation to infinity was performed by dividing the last Cins measured by the first-order rate constant of the terminal phase. The total area under the curve was estimated by the summation of these two compounds.
The elimination half-life was calculated from 0.693/ke where ke is the slope of the terminal phase of the log of the concentration-time profile.
The non-compartment analysis for insulin plasma concentrations over time was performed using standard techniques. The time to peak CPins (Tmax) and peak CPins (Cmax) were determined from the non-fitted average plasma concentrations (CPins) versus-time profiles for the treatments. AUC was calculated by the trapezoidal rule. MRT was not calculated due to a lack of data following intravenous administration from which to calculate pharmacokinetic parameters.

[4] = tested on: plasma glucose; experiment: Plasma glucose pharmacodynamics after lung spray-IT instillation to rats; type: in vivo, Sprague Dawley female rats
Experimental: Determination of fasting plasma glucose levels was performed using the Ektachem DT Slide (GLU) method. The analysis is based on the enzyme-catalyzed reaction of glucose with molecular oxygen, followed by a second reaction that produces a highly-colored red dye. The intensity of the color is proportional to the amount of glucose in the sample.
The percentage minimum plasma glucose concentration (%MPGC) and the time T to attain each %MPGC (T%MPGC) were determined from the average plasma glucose levels versus-time profiles for the treatments.
The area above the curve effect (AACE) was calculated as follows:
AACE=Total area−AUCE (Eq.2)
where AUCE represents the area under the curve effect calculated using the trapezoidal rule.
The percentage total reduction in plasma glucose from 0→t (%TRPG 0→t) was determined using the following equation:
%TRPG0→t=100(AACE/total area) (Eq.3)

[5] = lung spray-IT, insulin 0.01 mg/kg alone
[6] = lung spray-IT, insulin 0.05 mg/kg alone
[7] = spray-IT, porcine insulin 0.01 mg/kg, Table 3
[8] = spray-IT, porcine insulin 0.05 mg/kg, Table 3
[9] = spray-IT, porcine insulin 0.1 mg/kg, Table 3
[10] = spray-IT, porcine insulin 0.5 mg/kg, Table 3
[11] = spray-IT, porcine insulin 1.0 mg/kg, Table 3

Molecule: Cc1ccc(C(=O)NCCCCCCCC(=O)O)c(O)c1 [Carrier D, N-(4-methylsalicyloyl)-8-aminocaprylic acid]
- Cmax (serum insulin) [1]: 58.8 ± 12.0 μU/ml
- melting point: 113 to 114 °C

Molecule: CC(C(=O)[O-])c1ccc(NC(=O)c2ccccc2O)cc1.[Na+] (stereo not drawn) [Sodium Salt of Carrier B, Sodium 2-(4-(N-salicyloyl)aminophenyl)propionate]
- solubility [2]: 200 mg/mL

Molecule: Porcine Insulin: Lyophilized porcine insulin 25.9 IU/mg (Emisphere Technologies)
- half-life of decline in plasma concentrations [3]: 27.8 to 142.4 min
- t½ (abs) ([3]; 0.001 mg/kg): 27.8 min
- t½ (elim) ([3]; 0.001 mg/kg): 3.0 min
- t½ (abs) ([3]; 0.005 mg/kg): 42.6 min
- t½ (elim) ([3]; 0.005 mg/kg): 3.0 min
- tmax ([3]; 0.01 mg/kg): 10 min
- tmax ([3]; 0.05 mg/kg): 10 min
- AUC ([3]; 0.1 mg/kg): 9517.5
- tmax ([3]; 0.1 mg/kg): 10 min
- AUC ([3]; 0.5 mg/kg): 60345
- tmax ([3]; 0.5 mg/kg): 30 min
- AUC ([3]; 1 mg/kg): 178143.5
- tmax ([3]; 1 mg/kg): 30 min
- relative bioavailability ([3]; sc): 12.46%
- % MPGC [4, 5]: 70.02%
- % TRPG0-3 hr [4, 5]: 10.5±1.5%
- AACE0-t [4, 5]: 1892 ± 989 mcU/min/ml
- T % MPGC [4, 5]: 180 min
- % TRPG0-3 hr ([4]; lung spray-IT, insulin 0.01 mg/kg alone, listed as Insulin alone): 10.5 ± 1.5%
- % MPGC [4, 6]: 35.7%
- % TRPG0-3 hr [4, 6]: 47±10%
- AACE0-t [4, 6]: 8497 ± 1716 mcU/min/ml
- T % MPGC [4, 6]: 120 min
- % TRPG0-3 hr ([4]; lung spray-IT, insulin 0.05 mg/kg alone, listed as Insulin alone): 47 ± 10%
- % MPGC [4, 7]: 70.2%
- % TRPG0→3 hr [4, 7]: 10.5 ± 1.5%
- AACE0→t [4, 7]: 1892 ± 989 μU · min/ml
- T % MPGC [4, 7]: 180
- % TRPG0→3 hr ([4]; spray-IT, porcine insulin 0.01 mg/kg, Table 3, listed as insulin): 10.5%
- % MPGC [4, 8]: 35.69%
- % TRPG0→3 hr [4, 8]: 47.2 ± 9.5%
- AACE0→t [4, 8]: 8497 ± 1716 μU · min/ml
- T % MPGC [4, 8]: 120
- % MPGC [4, 9]: 35.3%
- % TRPG0→3 hr [4, 9]: 50.5 ± 12.7%
- AACE0→t [4, 9]: 9102 ± 2295 μU · min/ml
- T % MPGC [4, 9]: 120
- % MPGC [4, 10]: 30.6%
- % TRPG0→3 hr [4, 10]: 54.5 ± 6.5%
- AACE0→t [4, 10]: 10205 ± 1173 μU · min/ml
- T % MPGC [4, 10]: 60
- % MPGC [4, 11]: 13.1%
- % TRPG0→3 hr [4, 11]: 73.7 ± 3.1%
- AACE0→t [4, 11]: 13266 ± 570 μU · min/ml
- T % MPGC [4, 11]: 120
- % TRPG0→3 hr ([4]; spray-IT, porcine insulin 1.0 mg/kg, Table 3, listed as insulin): 73.7%

Molecule: CC(C(=O)O)c1ccc(NC(=O)c2ccccc2O)cc1 (stereo not drawn) [Carrier B, 2-(4-(N-salicyloyl)aminophenyl) propionic acid]
- Cmax (serum insulin) [1]: 44.6 ± 10.0 μU/ml

Molecule: COc1cccc(C(=O)Nc2ccc(CCC(=O)[O-])cc2)c1OC.[Na+] [Carrier C sodium salt]
- Cmax (serum insulin) [1]: 22.5 ± 4.0 μU/ml
